Results on 10 compounds are retold here after patent publication US20050282793A1, “Steroid prodrugs with androgenic action” (priority 2004, published 2005).

Like-named read-outs stand apart in the source and are kept apart here.

For orientation: IC50 means the concentration needed to halve the response being measured.

One data set has as its system erythrocytes. Kind of data set: Binding to erythrocytes: displacement of estradiol-3-sulfamate from the erythrocyte bond (RBA). Also noted: species or system human. Conditions: for RBA in Erythrocytes: human blood, displacement of 14C-labeled estradiol sulfamate, estradiol-3-sulfamate = 100. Here is the method:
The SO2—NH2 group of the compounds according to the invention can result in a concentration in erythrocytes by binding to carboanhydrases. The displacement of estradiol-3-sulfamate from the erythrocyte bond by test substances is measured. Test preparation: human blood is mixed with a mixture that consists of ^14C-labeled and unlabeled estradiol sulfamate. The erythrocytes are saturated at the selected working point. The distribution in plasma/erythrocytes is 40:60. A second blood sample is mixed with a mixture that consists of ^14C-labeled estradiol sulfamate and unlabeled test substance. The relative binding affinity is calculated from the proportion of ^14C-labeled estradiol sulfamate in plasma: higher proportion=strong displacement of ^14C-estradiol sulfamate from the erythrocytes by the test substance=high binding affinity of the test substances to the erythrocytes.
In general terms: Loss of bound radioactivity is the signal in a displacement assay; it reports binding, not function.

A short description of data set [1]: Determination of the erythrocyte/plasma distribution ratio. Type of data set: in vitro ADME. Particulars: freshly obtained, heparinized blood. How it is done:
Freshly obtained, heparinized blood is mixed with a defined amount of test substance. The concentration in the plasma obtained therefrom is measured. The erythrocyte/plasma distribution ratio is calculated from the measured concentration of the entire substance in plasma and the concentration that is used.

Data set [2] deals with gonadally intact, adult, sexually mature rats. Kind of data set: Test (III), oral treatment over 6 weeks. The class given is in vivo, rat. How it is done: (§1) • Method: Adult male rats, of about 300 g of body weight, are castrated and treated orally over 7 days with MENT and compound 12 according to the invention. On the 8th day of the test, the animals are sacrificed, and the hormonal effects of the test substances are evaluated (growth of the accessory sex glands, reduction of the gonadotropic hormones in plasma, parameters of hepatic actions: effects on HDL lipoproteins, determination of MENT in the plasma). Test (III) on Gonadally Intact Adult Sexually Mature Rats Over 6 Weeks
• Method: Adult male rats of above 300 g of body weight are treated orally over 6 weeks with MENT and compounds 12 or 5 according to the invention. At the end of the test, the animals are sacrificed, and the hormonal effects of the test substances are evaluated (weight of the testes and the accessory sex glands, reduction of the gonadotropic hormones and testosterone in the plasma during the course of the test, parameters of hepatic actions: effects on HDL lipoproteins).

A further data set concerns the target Human Carboanhydrase I (Homo sapiens, UniProt P00915). Briefly: Carboanhydrase I inhibition (CO2 hydration). Type of data set: biochemical. Here is the method:
Carboanhydrases catalyze the CO2 hydration.
Test preparation: A constant CO2 stream is directed by a buffer that was mixed with carboanhydrase I. The time that is required to reduce the pH within defined limits is a measuring parameter. This parameter reflects the formation of H2CO3 in the medium. IC50 inhibiting values are determined by test substances being pipetted into the test preparation.

Data set [3] deals with sexually mature, castrated male rats. Briefly: Test (II), oral treatment over 7 days, evaluation on day 8. The class given is in vivo, rat. Here is the method: Test (II) on Sexually Mature, Castrated Male Rats Over 8 Days
as §1

Data set [4] concerns accessory sex glands (prostate). Kind of data set: Hershberger Test (comparison of m- and p-substituted compound; test not specified). Conditions: m-substituted compound 12 compared to p-substituted compound 11. The class given is in vivo, rat.
The test system of data set [5] is sexually immature, castrated male rats. Briefly: Test (I), oral treatment over 7 days, evaluation on day 8. Type of data set: in vivo, rat. Here is the method: Test (I) on Sexually Immature, Castrated Male Rats Over 8 Days
Method: Male rats weighing about 45 g of body weight are castrated and treated orally over 7 days with MENT and with compounds 12 or 18 according to the invention. On the 8th day of the test, the animals are sacrificed, and the hormonal effects of the test substances are evaluated (growth of the accessory sex glands, reduction of gonadotropic hormones in plasma, parameters of hepatic actions: effects on HDL lipoproteins).

Chain of Human Carboanhydrase I (P00915 whole entry): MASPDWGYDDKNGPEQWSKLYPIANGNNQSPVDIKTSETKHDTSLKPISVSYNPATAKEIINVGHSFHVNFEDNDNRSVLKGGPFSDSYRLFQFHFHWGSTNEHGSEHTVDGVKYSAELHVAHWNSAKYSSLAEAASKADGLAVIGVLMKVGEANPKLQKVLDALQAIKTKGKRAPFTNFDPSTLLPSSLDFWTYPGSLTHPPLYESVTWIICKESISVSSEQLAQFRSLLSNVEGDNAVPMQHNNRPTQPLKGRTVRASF

On to `C[C@]12CC[C@H]3[C@@H](CCC4=CC(=O)CC[C@@H]43)[C@@H]1CC[C@@H]2OC(=O)c1ccc(S(N)(=O)=O)cc1` [Compound 8, 3-Oxoestr-4-en-17β-yl 4′-sulfamoyl benzoate], for which the “RBA in Erythrocytes” value in the data set with erythrocytes stood at 24. The “Distribution Ratio with Erythrocytes/Plasma” value in data set [1] worked out at 7.
As for `C[C@]12CC[C@H]3[C@@H](CCC4=CC(=O)CC[C@@]43C)[C@@H]1CC[C@@H]2OC(=O)c1cccc(S(N)(=O)=O)c1` [Compound 5, 3-Oxoandrost-4-en-17β-yl 3′-sulfamoyl benzoate], in data set [2], the “changes in hepatic parameters” value is listed as “especially small changes in hepatic parameters”. Besides, on Human Carboanhydrase I, the IC50 came to 880 nM. For the same compound, the “RBA in Erythrocytes” value with erythrocytes is on record as 1.3. For the same compound, the “Distribution Ratio with Erythrocytes/Plasma” value in data set [1] amounted to 2.
For `C[C@]12CC[C@H]3[C@@H](CCC4=CC(=O)CC[C@@]43C)[C@@H]1CC[C@@H]2OC(=O)CCc1ccc(S(N)(=O)=O)cc1` [Compound 14, 3-Oxoandrost-4-en-17β-yl 4′-sulfamoylphenylpropionate], the “RBA in Erythrocytes” value in the data set with erythrocytes is 3.4. The “Distribution Ratio with Erythrocytes/Plasma” value in data set [1] came out at 4.
For `COc1ccc(S(N)(=O)=O)cc1C(=O)O[C@H]1CC[C@H]2[C@@H]3CCC4=CC(=O)CC[C@]4(C)[C@H]3CC[C@]12C` [Compound 4, 3-Oxoandrost-4-en-17β-yl 2′-methoxy-5′-sulfamoyl benzoate], in that order: 0.8 and 2.
For `C[C@]12CC[C@@H]3c4ccc(OS(N)(=O)=O)cc4CC[C@H]3[C@@H]1CC[C@@H]2O` [Estradiol-3-sulfamate, reference compound], in that order: 100 and 48.
Regarding `C[C@@H]1CC2=CC(=O)CC[C@@H]2[C@H]2CC[C@]3(C)[C@@H](OC(=O)c4cccc(S(N)(=O)=O)c4)CC[C@H]3[C@@H]21` [Compound 12, 3-Oxo-7α-methylestr-4-en-17β-yl 3′-sulfamoyl benzoate], the antigonadotropic effects entry in data set [2] was “Superior antigonadotropic effects”. For the same compound, the “effects on the accessory sex glands (weights of seminal vesicles and prostates)” value in data set [2] is “induced in a dose-dependent way an increase of the weights of the seminal vesicles and prostates beyond the level of intact controls”. On Human Carboanhydrase I, inhibition was half-maximal at 600 nM (IC50). The “RBA in Erythrocytes” value in the data set on erythrocytes is 2.1. The “bond strength to the erythrocytes (in words)” value in the data set with erythrocytes (m-substituted versus 4'-sulfamoyl benzoates) was “lower bond strength to the erythrocytes”. In addition, the “levels of MENT in the plasma” value in data set [3] (after oral administration) was “significantly higher levels of MENT are achieved in the plasma than after the administration of MENT itself”. Besides, the “growth of the accessory sex glands” value is reported as “unexpectedly strong, dose-dependent effects on the growth of the accessory sex glands” in data set [3] (oral, 7 days) and “strong dose-dependent effects on the growth of the accessory sex glands” in data set [5]. In addition, the “activity in the Hershberger Test” value in data set [4] was “higher activity in the Hershberger Test compared to the p-substituted compound 11”. In data set [1], the “Distribution Ratio with Erythrocytes/Plasma” value was found to be 3.
Consider `C[C@]12CC[C@H]3[C@@H](CCC4=CC(=O)CC[C@@]43C)[C@@H]1CC[C@@H]2OC(=O)c1cc(S(N)(=O)=O)ccc1O` [Compound 18, 3-Oxoandrost-4-en-17β-yl 2′-hydroxy-5′-sulfamoyl Benzoate], for which, in the data set with erythrocytes, the “RBA in Erythrocytes” value is 1.4. For the same compound, the “growth of the accessory sex glands” value in data set [5] is on record as “strong dose-dependent effects on the growth of the accessory sex glands”. In addition, in data set [1], the “Distribution Ratio with Erythrocytes/Plasma” value turned out to be 2.
As to `C[C@@H]1CC2=CC(=O)CC[C@@H]2[C@H]2CC[C@]3(C)[C@@H](O)CC[C@H]3[C@@H]21` [MENT, 7α-methyl-19-nortestosterone, reference compound], in data set [2], the “effects on the accessory sex glands (weights of seminal vesicles and prostates)” value is “A corresponding effect even in the case of extremely high dosage did not occur”; the “reduction of HDL” value was “even more effective than the substances according to the invention”. In data set [3] (oral, 7 days), the “growth of the accessory sex glands” value is “only marginal effects” and the “reduction of HDL” value is on record as “even more active than the substances according to the invention”. In addition, in data set [5], the “growth of the accessory sex glands” value is given as “only marginal effects” and the “reduction of HDL” value is recorded as “even more active than the substances according to the invention”.
For the compound `C[C@@H]1CC2=CC(=O)CC[C@@H]2[C@H]2CC[C@]3(C)[C@@H](OC(=O)c4ccc(S(N)(=O)=O)cc4)CC[C@H]3[C@@H]21` [Compound 11, 3-Oxo-7α-methylestr-4-en-17β-yl 4′-sulfamoyl benzoate], on Human Carboanhydrase I (human carboanhydrase I, read-out: CAI IC50), the IC50 lay within 200 to 400 nM.
For `C[C@]12CC[C@H]3[C@@H](CCC4=CC(=O)CC[C@@]43C)[C@@H]1CC[C@@H]2OC(=O)c1ccc(S(N)(=O)=O)cc1` [Compound 1, 3-Oxoandrost-4-en-17β-yl 4′-sulfamoyl benzoate], on Human Carboanhydrase I, 370 nM corresponded to half-maximal inhibition (IC50). For the same compound, the “RBA in Erythrocytes” value in the data set on erythrocytes stood at 48. In addition, the “Distribution Ratio with Erythrocytes/Plasma” value in data set [1] amounted to 9.
